The test system of experiment [1] is human transformed keratinocytes (HaCat). In words: cells. Conditions: 72 h. Here is the method:
In a second cell reproduction test, human transformed keratinocytes (HaCat) are employed which are cultured in DMEM culture medium with an addition of 10% calf serum. Cells which have grown to confluence beforehand are isolated with trypsin and distributed in 6-well plates in a density of 40×10^3.
The test substance is added 24 h after distribution and after incubation for a further 72 h the cell count is determined using a Coulter counter. Controls are incubated without further additions or with the addition of the solubilizer polyethylene glycol 400 (0.05%).
Evaluation was made in each case for 6 wells/concentration.

In experiment [2] the test system is human keratinocytes. Briefly: cells. The conditions noted are these: Keratinocyte, 264 h, read-out: average inhibitory concentration (IC50).
Method: To determine the action, firstly human keratinocytes from the preputial skin of neonates after the 1st passage are distributed in MCDB153 medium in 96-well microtiter plates (2×10^3 cells/well) and the compound given below is added in concentrations of from 10^-10 to 10^-5 M, blank controls containing only the solubilizer DMSO (1%). The period of incubation is 11 days, and after another 2 days in each case there is a change of medium followed by renewed addition of substance.
To determine the rate of cell reproduction, incubation is carried out for 1 h with 4-methylumbelliferyl heptanoate (MUH) according to the method described by R. Stadler et al., Journal of Investigative Dermatology 93, 532-534, 1989, after which the fluorescence intensity is measured using a Titertek Fluoroskan.
4 experiments were carried out, in each case with 4 wells/concentration.
Where [3] appears, read: read-out: % inhibition of growth.

Structures are written as SMILES.

In the case of `COC(=O)C1=C(C)NC(C)=C(C(=O)OCCCN2CCC(c3ccccc3)(c3ccccc3)CC2)C1c1cccc([N+](=O)[O-])c1` (single isomer, unassigned) [Compound 1, 3-methyl 5-[3-(4,4-diphenyl-1-piperidyl)propyl] (-)-1,4-dihydro-2,6-dimethyl-4-(3-nitrophenyl)pyridine-3,5-dicarboxylate], the inhibition (in general, the change of the read-out against control, counted positive when it falls) at 1 µM in experiment [1] (setting [3]) came to 60%. Moreover, the inhibition at 10 µM in experiment [1] (setting [3]) came to 96%. Also, the results for the IC50 in experiment [1] (read-out: inhibitory concentration (IC50)) and in experiment [2] were 520 nM and 88 nM, respectively.

Source of the values: US5470860A, “1,4-dihydropyridines for use in the treatment of dermatoses” (Byk Gulden Lomberg Chemische Fabrik GmbH, priority 1991, dated 1995).
